How the values were obtained:
Type in all cases: in vivo
[1] = test system: HORVS, Hordeum vulgare (spring barley); assay: Greenhouse postemergence phytotoxicity on crop (visual injury, 20-22 d)
From the text: (§1) Greenhouse Trial Methodology—Evaluation of Postemergence Herbicidal Effect
(§2) Seeds of the desired test plant species were planted in a 90:10% v/v (volume/volume) mixture of PRO-MIX® BX (Premier Tech Horticulture, Quakertown, Pa., USA) and PROFILE®GREENS GRADE™ (Profile Products LLC, Buffalo Grove, Ill., USA) planting mixture, which typically has a pH of 5.2 to 6.2 and an organic matter content of at least 50 percent, in plastic pots with a surface area of 103.2 square centimeters (cm^2). In some aspects, to help ensure good germination and healthy plants, a fungicide treatment and/or other chemical or physical treatment was applied. The plants were grown for 7-36 days (d) in a greenhouse with an approximate 14-hour (h) photoperiod which was maintained at about 23° C. during the day and 22° C. during the night. Nutrients and water were added on a regular basis and supplemental lighting was provided with overhead metal halide 1000-Watt lamps as necessary. The plants were employed for testing when they reached the second or third true leaf stage.
(§3) Emulsifiable concentrates of each of each pyridine carboxylate herbicide (Compound A or Compound B) were prepared at 100 grams acid equivalent per liter (g ae/L). The emulsifiable concentrates also included a safener, cloquintocet-mexyl, at 120 grams active ingredient per liter (g ai/L), unless otherwise noted below. An aliquot of each emulsifiable concentrate was placed in a 25 mL glass vial and diluted with an aqueous mixture of 1.25% (v/v) ACTIROB® B esterified rapeseed oil (Bayer Crop Science, Research Triangle Park, N.C., USA) or MSO® Concentrate with LECI-TECH® methylated soybean oil (Loveland Products, Loveland, Colo., USA) to obtain concentrated stock solutions at the highest application rate for each herbicide, based upon a 12 milliliter (mL) application volume at a rate of 187 liters per hectare (L/ha). The concentrated stock solutions were further diluted with an aqueous mixture of 1.25% v/v ACTIROB® B or MSO® Concentrate with LECI-TECH® to obtain stock solutions at reduced application rates for each herbicide. Spray solutions of the herbicide combinations (Compound A or Compound B plus PS-II herbicide and optional HPPD herbicide) were prepared by adding weighed amounts or aliquots of the PS-II herbicide and optional HPPD herbicide to the stock solutions of Compound A or Compound B to form 12-mL spray solutions in two- or three-way combinations.
(§4) The spray solutions were applied to the plant material with an overhead Mandel track sprayer equipped with 8002E nozzles calibrated to deliver 187 L/ha over an application area of 0.503 square meters (m^2) at a spray height of 18 inches ([…] centimeters (cm)) above the average plant canopy. Control plants were sprayed in the same manner with the solvent blank. All pyridine carboxylate herbicide (component a) application rates are given as “g ae/ha” and all PS II inhibitor herbicide (component b) and HPPD inhibitor herbicide (component c) application rates are given as “g ai/ha.”
(§5) The treated plants and control plants were placed in a greenhouse as described above and watered by sub-irrigation to prevent wash-off of the test compounds. After 20-22 d, the condition of the test plants as compared with that of the control plants was determined visually and scored on a scale of 0 to 100 percent where 0 corresponds to no injury and 100 corresponds to complete kill.

[2] = test system: TRZAS, Triticum aestivum (spring wheat); assay: as above
From the text: as §1, §2, §3, §4, §5

[3] = test system: POLCO, Polygonum convolvulus (wild buckwheat); assay: Greenhouse postemergence herbicidal effect (visual injury, 20-22 d)
From the text: as §1, §2, §3, §4, §5

[4] = test system: SASKR, Salsola kali (Russian thistle); assay: as above
From the text: as §1, §2, §3, §4, §5

[5] = test system: CIRAR, Cirsium arvense (Canada thistle); assay: as above
From the text: as §1, §2, §3, §4, §5

[6] = test system: KCHSC, Kochia scoparia (kochia); assay: as above
From the text: as §1, §2, §3, §4, §5

[7] = test system: SINAR, Sinapis arvensis (wild mustard); assay: as above
From the text: as §1, §2, §3, §4, §5

[8] = test system: AMARE, Amaranthus retroflexus (pigweed); assay: as above
From the text: as §1, §2, §3, §4, §5

[9] = test system: MATCH, Matricaria chamomilla (wild chamomile); assay: as above
From the text: as §1, §2, §3, §4, §5

[10] = test system: CHEAL, Chenopodium album L. (common lambsquarters); assay: as above
From the text: as §1, §2, §3, §4, §5

[11] = test system: BRSNW, Brassica napus (winter rape); assay: as above
From the text: as §1, §2, §3, §4, §5

[12] = test system: IPOHE, Ipomoea hederacea (ivyleaf morningglory); assay: as above; settings: 5 g ai/ha alone
From the text: as §1, §2, §3, §4, §5

[13] = test system: GLXMA, Glycine max (soybean); assay: as above; settings: 5 g ai/ha alone
From the text: as §1, §2, §3, §4, §5

[14] = test system: SORVU, Sorghum vulgare (grain sorghum); assay: as above; settings: 5 g ai/ha alone
From the text: as §1, §2, §3, §4, §5

[15] = test system: ABUTH, Abutilon theophrasti (velvetleaf); assay: as above; settings: 5 g ai/ha alone
From the text: as §1, §2, §3, §4, §5

[16] = test system: BRSNN, Brassica napus (spring rape); assay: as above; settings: 125 g ai/ha alone
From the text: as §1, §2, §3, §4, §5

[17] = Fallopia convolvulus, post-emergence, read-out: visual injury Obs

SMILES: CCOC(=O)Nc1cccc(OC(=O)Nc2ccccc2)c1 [Desmedipham, 3-ethoxycarbonylaminophenyl phenylcarbamate]
- visual injury Obs ([1]; 162.5 g ai/ha alone): 0%
- visual injury Obs ([2]; 162.5 g ai/ha alone): 0%
- pest or weed control at 162.5 g/ha [3, 17]: 0%
- visual injury Obs ([4]; 162.5 g ai/ha alone): 0%
- visual injury Obs ([5]; 162.5 g ai/ha alone): 10%
- visual injury Obs ([6]; 162.5 g ai/ha alone): 0%
- visual injury Obs ([7]; 162.5 g ai/ha alone): 0%
- visual injury Obs ([8]; 162.5 g ai/ha alone): 15%
- visual injury Obs ([9]; 162.5 g ai/ha alone): 0%
- visual injury Obs ([10]; 162.5 g ai/ha alone): 0%
- visual injury Obs ([11]; 162.5 g ai/ha alone): 0%

SMILES: CN(C)C(=O)Nc1ccc(Cl)c(Cl)c1 [Diuron, 3-(3,4-dichlorophenyl)-1,1-dimethylurea]
- visual injury Obs ([1]; 220 g ai/ha alone): 10%
- visual injury Obs ([2]; 220 g ai/ha alone): 0%
- pest or weed control at 220 g/ha [3, 17]: 5%
- visual injury Obs ([4]; 220 g ai/ha alone): 40%
- visual injury Obs ([5]; 220 g ai/ha alone): 40%
- visual injury Obs ([6]; 220 g ai/ha alone): 90%
- visual injury Obs ([7]; 220 g ai/ha alone): 5%
- visual injury Obs ([8]; 220 g ai/ha alone): 98%
- visual injury Obs ([9]; 220 g ai/ha alone): 15%
- visual injury Obs ([10]; 220 g ai/ha alone): 100%
- visual injury Obs ([11]; 220 g ai/ha alone): 5%

SMILES: CSc1nnc(C(C)(C)C)c(=O)n1N [Metribuzin, 4-amino-6-tert-butyl-3-methythio-1,2,4-triazin-5(4H)-one]
- visual injury ([1]; 25 g ai/ha alone): 0%
- visual injury ([2]; 25 g ai/ha alone): 0%
- visual injury ([3]; 25 g ai/ha alone): 0%
- visual injury ([4]; 25 g ai/ha alone): 0%
- visual injury ([5]; 25 g ai/ha alone): 3%
- visual injury ([6]; 25 g ai/ha alone): 0%
- visual injury ([7]; 25 g ai/ha alone): 18%
- visual injury ([8]; 25 g ai/ha alone): 0%
- visual injury ([9]; 25 g ai/ha alone): 0%
- visual injury ([10]; 25 g ai/ha alone): 3%
- visual injury ([11]; 25 g ai/ha alone): 0%

SMILES: CCC(=O)Nc1ccc(Cl)c(Cl)c1 [Propanil, 3′,4′-dichloropropionanilide, reference compound]
- pest or weed control at 5 g/ha ([3]; Fallopia convolvulus, post-emergence, 5 g ai/ha alone, read-out: visual injury Obs): 20%
- visual injury Obs [12]: 38%
- visual injury Obs [13]: 23%
- visual injury Obs ([5]; 5 g ai/ha alone): 28%
- visual injury Obs [14]: 15%
- visual injury Obs [15]: 10%

SMILES: CCCCCCCCSC(=O)Oc1cc(Cl)nnc1-c1ccccc1 [Pyridate, O-6-chloro-3-phenylpyridazin-4-yl S-octyl thiocarbonate]
- visual injury Obs ([1]; 125 g ai/ha alone): 5%
- visual injury Obs ([2]; 125 g ai/ha alone): 0%
- pest or weed control at 125 g/ha ([3]; Fallopia convolvulus, post-emergence, 125 g ai/ha alone, read-out: visual injury Obs): 0%
- visual injury Obs ([4]; 125 g ai/ha alone): 0%
- visual injury Obs [16]: 15%
- visual injury Obs ([6]; 125 g ai/ha alone): 0%
- visual injury Obs ([7]; 125 g ai/ha alone): 0%
- visual injury Obs ([10]; 125 g ai/ha alone): 0%

SMILES: CNC(=O)N(C)c1nnc(C(C)(C)C)s1 [Tebuthiuron, 1-(5-tert-butyl-1,3,4-thiadiazol-2-yl)-1,3-dimethylurea, reference compound]
- visual injury Obs ([1]; 280 g ai/ha alone): 28%
- visual injury Obs ([2]; 280 g ai/ha alone): 0%
- pest or weed control at 280 g/ha [3, 17]: 40%
- visual injury Obs ([5]; 280 g ai/ha alone): 40%
- visual injury Obs ([6]; 280 g ai/ha alone): 23%
- visual injury Obs ([7]; 280 g ai/ha alone): 35%
- visual injury Obs ([8]; 280 g ai/ha alone): 88%
- visual injury Obs ([9]; 280 g ai/ha alone): 25%
- visual injury Obs ([10]; 280 g ai/ha alone): 98%
- visual injury Obs ([11]; 280 g ai/ha alone): 45%
